Test results published in patent US7141573B2, “Polypharmacophoric agents” (Molecular Insight Pharmaceuticals, Inc., priority 2000, dated 2006).
Where two headings read alike, the source gives them in different places.

Experiments:
hSERT [1] = biological target: T1, hSERT (Homo sapiens, UniProt P31645); experiment: [125I]RTI-55 binding in HEK hSERT membranes; details: Table II; bound given in μM
T1 construct: expressed in transfected cells; host or cells: HEK cells expressing hSERT

hNET [2] = biological target: T2, hNET (Homo sapiens, UniProt P23975); experiment: [125I]RTI-55 binding in HEK-hNET membranes; details: Table II
T2 construct: expressed in transfected cells; host or cells: HEK cells expressing hNET
T2 sequence (P23975 whole entry): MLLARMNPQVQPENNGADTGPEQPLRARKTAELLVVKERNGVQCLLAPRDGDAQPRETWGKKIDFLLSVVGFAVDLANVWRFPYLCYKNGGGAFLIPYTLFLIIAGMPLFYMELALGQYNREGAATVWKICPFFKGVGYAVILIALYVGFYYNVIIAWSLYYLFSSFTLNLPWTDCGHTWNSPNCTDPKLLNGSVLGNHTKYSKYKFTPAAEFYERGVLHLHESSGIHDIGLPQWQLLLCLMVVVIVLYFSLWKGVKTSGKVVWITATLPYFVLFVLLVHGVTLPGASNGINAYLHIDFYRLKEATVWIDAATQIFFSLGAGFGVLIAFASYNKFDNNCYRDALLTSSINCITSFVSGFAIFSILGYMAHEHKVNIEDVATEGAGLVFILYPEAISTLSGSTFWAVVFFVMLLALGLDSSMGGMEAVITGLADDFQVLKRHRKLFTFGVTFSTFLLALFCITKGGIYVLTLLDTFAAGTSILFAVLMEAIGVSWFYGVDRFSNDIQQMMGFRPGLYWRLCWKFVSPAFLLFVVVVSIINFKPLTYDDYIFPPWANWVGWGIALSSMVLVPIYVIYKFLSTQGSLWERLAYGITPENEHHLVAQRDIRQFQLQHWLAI

hNET [3] = biological target: T2, hNET; experiment: [3H]NE uptake in HEK-hNET cells; format: cell-based; details: Table II
[4] = biological target: T3, human dopamine transporter (hDAT) (Homo sapiens, UniProt Q01959); experiment: [125I]RTI-55 binding to human dopamine transporter in HEK-293 hDAT membranes; details: for Hill Coefficient: [125I]RTI-55 binding
T3 construct: expressed in transfected cells; host or cells: HEK-293 cells stably expressing recombinant hDAT
T3 sequence (Q01959 whole entry): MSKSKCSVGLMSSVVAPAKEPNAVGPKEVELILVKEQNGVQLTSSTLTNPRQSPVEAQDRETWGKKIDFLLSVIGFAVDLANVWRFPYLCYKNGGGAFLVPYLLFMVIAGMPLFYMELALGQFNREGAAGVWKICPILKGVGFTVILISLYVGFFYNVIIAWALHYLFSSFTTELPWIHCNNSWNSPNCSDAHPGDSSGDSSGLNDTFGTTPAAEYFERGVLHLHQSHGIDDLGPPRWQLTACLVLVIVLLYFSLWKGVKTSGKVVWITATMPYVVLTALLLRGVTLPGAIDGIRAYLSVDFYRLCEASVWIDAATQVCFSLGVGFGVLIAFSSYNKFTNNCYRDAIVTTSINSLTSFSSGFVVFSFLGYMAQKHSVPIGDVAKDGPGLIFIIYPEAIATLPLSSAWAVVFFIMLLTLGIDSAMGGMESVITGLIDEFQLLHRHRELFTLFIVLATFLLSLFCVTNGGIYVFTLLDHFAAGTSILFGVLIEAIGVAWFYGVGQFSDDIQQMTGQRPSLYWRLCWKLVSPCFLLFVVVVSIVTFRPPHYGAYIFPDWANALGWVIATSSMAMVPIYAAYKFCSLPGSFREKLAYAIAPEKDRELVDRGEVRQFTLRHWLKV
Description: To characterize drug interactions with the human dopamine transporter (hDAT), drugs (approximately 30 nM to 10 μM) were incubated with a membrane preparation from HEK-293 cells stably expressing the recombinant hDAT, [^125I]RTI-55 (34 pM), and buffer in a final volume of 250 μl. Independent assays were conducted 2 to 3 times with duplicate determinations. The Cheng-Prusoff equation was used to convert IC50 values to Ki values.

hSERT [5] = biological target: T1, hSERT; experiment: [3H]5HT uptake in HEK-hSERT cells; format: cell-based; details: Table II; bound given in μM
hDAT = biological target: T4, hDAT (Homo sapiens, UniProt Q01959); experiment: [3H]DA uptake in HEK hDAT cells; format: cell-based; details: Table II
T4 construct: expressed in transfected cells; host or cells: HEK-293 cells stably expressing recombinant hDAT
T4 sequence (Q01959 whole entry): as above

[6] = read-out: [125I]RTI-55 Binding in HEK-hNET Membranes KI (nM) sem
[7] = read-out: [3H]NE Uptake in HEK-hNET cells IC50 (nM) sem
[8] = Table 1, [125I]RTI-55 34 pM, HEK-293 hDAT membranes, mean +/- range or s.e.m. of 2 or 3 experiments, read-out: Ki value
[9] = Table 1, HEK-293 hDAT membranes
[10] = Table II, read-out: [125I]RTI-55 Binding in HEK hDAT Membranes Ki (nM) sem
[11] = read-out: [3H]DA Uptake in HEK hDAT cells IC50 (nM) sem
[12] = bound given in μM, read-out: [125I]RTI-55 Binding in HEK-hNET Membranes KI
[13] = bound given in μM, read-out: [3H]NE Uptake in HEK-hNET cells IC50
[14] = Table II, bound given in μM, read-out: [125I]RTI-55 Binding in HEK hDAT Membranes Ki
[15] = bound given in μM, read-out: [3H]DA Uptake in HEK hDAT cells IC50

T1 sequence (P31645 whole entry): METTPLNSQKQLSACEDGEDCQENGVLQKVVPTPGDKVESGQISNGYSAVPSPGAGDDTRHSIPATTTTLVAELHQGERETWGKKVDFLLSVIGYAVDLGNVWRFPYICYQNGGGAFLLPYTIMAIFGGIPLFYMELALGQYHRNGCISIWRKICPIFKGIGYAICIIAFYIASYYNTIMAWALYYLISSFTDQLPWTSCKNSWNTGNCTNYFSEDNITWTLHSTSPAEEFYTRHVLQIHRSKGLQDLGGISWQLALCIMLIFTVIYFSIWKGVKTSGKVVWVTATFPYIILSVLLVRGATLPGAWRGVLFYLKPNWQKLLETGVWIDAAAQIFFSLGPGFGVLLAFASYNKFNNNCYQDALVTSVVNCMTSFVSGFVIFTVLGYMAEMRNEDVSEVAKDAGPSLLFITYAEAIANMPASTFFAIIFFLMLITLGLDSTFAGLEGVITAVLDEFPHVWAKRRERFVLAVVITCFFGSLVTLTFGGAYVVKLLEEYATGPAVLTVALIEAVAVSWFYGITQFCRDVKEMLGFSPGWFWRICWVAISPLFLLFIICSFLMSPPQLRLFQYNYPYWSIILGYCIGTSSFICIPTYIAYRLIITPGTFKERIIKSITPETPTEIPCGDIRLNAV

Structure (SMILES) | Ki (hSERT [1]) [µM] | [125I]RTI-55 Binding in HEK-hNET Membranes Hill slope (hNET [2]) | Ki (hNET [2]; [6]) [nM] | IC50 (hNET [3]; [7]) [nM] | Ki [4, 8] [nM] | Hill Coefficient [4, 9] | [125I]RTI-55 Binding in HEK hDAT Membranes Hill slope ([4]; Table II) | Ki [4, 10] [nM] | IC50 (hSERT [5]) [µM] | IC50 (hDAT; [11]) [nM] | Ki (hNET [2]; [12]) [nM] | IC50 (hNET [3]; [13]) [nM] | Ki [4, 14] [nM] | IC50 (hDAT; [15]) [nM]
O=C(O)C(/C=C/c1ccccc1)C1CCN(CCOC(c2ccc(F)cc2)c2ccc(F)cc2)CC1 (stereo not shown) [ZHN-93] | > 10 | −1.78 ± 0.65 | 4540 ± 1540 | 117 ± 20 | 727 ± 291 | −1.0 ± 0.3 | −1.02 ± 0.30 | 727 ± 291 | > 10 | 182 ± 59 |  |  |  | 
CN(CCC=C1c2ccccc2CCc2ccccc21)C(/C=C/c1ccccc1)C(=O)O (stereo not shown) [RNH-Z-44] | > 10 |  |  |  | 3300 ± 855 | −2.2 ± 0.9 | −2.16 ± −0.89 | 3300 ± 855 | > 10 | 1820 ± 819 | > 10000 | > 10000 |  | 
O=C(O)C(/C=C/c1ccccc1)N1CCC(c2ccccc2)CC1 (stereo not shown) [RNH-Z-24] | > 10 |  |  | 204 ± 85 |  |  |  |  | > 10 |  | > 10000 |  | > 10000 | > 10000
O=C(O)C(/C=C/c1ccccc1)N1CCC(O)(c2ccc(Cl)cc2)CC1 (stereo not shown) [RNH-Z-48] | > 10 |  |  |  |  |  |  |  | > 10 |  | > 10000 | > 10000 | > 10000 | > 10000
CN(C)C(=O)C(/C=C/c1ccccc1)N1CCC(c2ccccc2)CC1 (stereo not shown) [RNH-Z-28] | > 10 |  |  | 211 ± 65 | 3920 ± 1240 | −2.1 ± 0.6 | −2.09 ± 0.60 | 3920 ± 1240 | > 10 | 4040 ± 1630 | > 10000 |  |  | 
O=C(O)C(/C=C/c1ccccc1)NC1CCc2ccccc21 (stereo not shown) [RNH-Z-39] | > 10 | −0.96 ± 0.17 | 2920 ± 1230 |  |  |  |  |  | > 10 |  |  | > 10000 | > 10000 | > 10000
c1ccc(CCCN2CCN(CCOC(c3ccccc3)c3ccccc3)CC2)cc1 [GBR-12935, reference compound] |  | −0.90 ± 0.07 | 628 ± 59 | 165 ± 17 |  |  |  |  |  |  |  |  |  | 
CC(Cc1cccc(C(F)(F)F)c1)NC(/C=C/c1ccccc1)C(=O)O (stereo not shown) [RNH-Z-58] | > 10 |  |  |  |  |  |  |  | > 10 |  | > 10000 | > 10000 | > 10000 | > 10000
O=C(O)C(/C=C/c1ccccc1)N1CCN(CCOC(c2ccccc2)c2ccccc2)CC1 (stereo not shown) [ZHN-94] | > 10 |  |  | 2200 ± 470 | 2780 ± 1250 | −0.8 ± 0.2 | −0.78 ± 0.17 | 2780 ± 1250 | > 10 | 385 ± 111 | > 10000 |  |  | 
O=C(NCc1cccc2ccccc12)C(/C=C/c1ccccc1)N1CCC(c2ccccc2)CC1 (stereo not shown) [RNH-Z-31] | > 10 |  |  |  | 7730 ± 3070 | −7.0 ± 4.5 | −7.00 ± 4.54 | 7730 ± 3070 | > 10 |  | > 10000 | > 10000 |  | > 10000
O=C(O)C(/C=C/c1ccccc1)C1CCN(CCOC(c2ccccc2)c2ccccc2)CC1 (stereo not shown) [ZHN-92] | > 10 |  |  | 113 ± 15 | 3710 ± 1250 | −1.2 ± 0.2 | −1.15 0.15 |  | > 10 | 2010 ± 428 | > 10000 |  |  | 
CN(CCCN1c2ccccc2C=Cc2ccccc21)C(/C=C/c1ccccc1)C(=O)O (stereo not shown) [RNH-Z-52] | > 10 |  |  |  |  |  |  |  | > 10 |  | > 10000 | > 10000 | > 10000 | > 10000
